Values of other authors in patent publication US20230330068A1, “GEL COMPOSITION OF LULICONAZOLE FOR TREATMENT OF VAGINAL FUNGAL INFECTIONS AND ITS MANUFACTURING PROCESS” (priority 2023, published 2023).

Test system: Candida
Details: anticandidal activity; recent findings from the literature

minimum inhibitory concentration (MIC) range: 31 to 130 µg/mL
Compound: N#C/C(=C1/SC[C@@H](c2ccc(Cl)cc2Cl)S1)n1ccnc1 [Luliconazole]
